In paper PMC7930575, “Comparison of the Inhibitory Binding Modes Between the Planar Fascaplysin and Its Nonplanar Tetrahydro-β-carboline Analogs in CDK4” (Frontiers in Chemistry, 2021):
Read-outs that look alike come from different tables or passages of the source.

Columns and labels:
[1] = test system: HeLa; test: MTT cytotoxicity assay, HeLa cells, 48 h; format: cell-based; conditions: Homo sapiens, read-out: Cytotoxicity (IC50, μM) HeLa
Experimental: (§1) The cytotoxicity of the target compounds was evaluated via MTT assay; A549, HeLa, HepG2, and WI-38 were selected for the experiment; and the selected cell lines were purchased from Lanzhou Weihuan Biotechnology Development Co., Ltd. All cell lines were maintained in RPMI-1640 medium supplemented with 10% fetal calf serum under the environment of 5% CO2 concentration and 37°C. The incubated tumor cells were seeded in the prepared 96-well plates, respectively, to make them attach for 12 h. Afterward, the cells were processed with the synthesized compounds with different concentrations as well as fascaplysin as the reference group for 48 h. After 48 h, 10 μl of MTT solution (5 mg/ml in PBS) was added into each well and incubated for 4 h. Then, the medium was removed and 100 μl DMSO was added to dissolve the blue-colored formazan. The absorbance was detected at 570 nm by microplate reader to calculate the inhibition rate (%) and the IC50 was defined using GraphPad Prism Software (version 5.02) (shown in Table 1).

[2] = molecular target: T1, CDK4/CycD3 (Homo sapiens, UniProt P11802); test: CDK4 kinase inhibition assay (mobility shift assay); format: biochemical; conditions: mean of three independent experiments
T1 construct: purchased Cama
Experimental: In this study, the inhibitory activities of the synthesized compounds against CDK4/CycD3 were also evaluated using mobility shift assay, and fascaplysin was used as the positive control compound. CDK4/CycD3 was from Cama, kinase substrate peptide was from GL, and fascaplysin was from Selleckchem. First, the kinase base buffer should be prepared (50.0 mmol/L HEPES, pH 7.5, 5 mM MgCl2, 1 mmol DTT, 0.0015% Brij-35). Second, 50 μg CDK4 kinase was added to the kinase base buffer to prepare the kinase solution. The kinase base buffer was used to prepare ATP and substrate peptide solutions, and the obtained solutions were mixed. Third, the synthesized compounds as well as the fascaplysin were diluted with DMSO to the desired concentrations. Fourth, the reaction mixture was incubated at 30°C for 40 min, and 25 μl stop buffer was added to stop the reaction. Finally, conversion was read by Caliper, and GraphPad Prism 5.0 was used to calculate the IC50 values of the compounds against enzyme bioactivities (Table 2).

[3] = MTT cytotoxicity assay, normal cells WI-38, 48 h; format: cell-based; conditions: human
Experimental: as §1

[4] = test system: A549; test: MTT cytotoxicity assay, A549 cells, 48 h; format: cell-based; conditions: Homo sapiens, read-out: Cytotoxicity (IC50, μM) A549
Experimental: as §1

[5] = test system: HepG2; test: MTT cytotoxicity assay, HepG2 cells, 48 h; format: cell-based; conditions: Homo sapiens, read-out: Cytotoxicity (IC50, μM) HepG2
Experimental: as §1

[6] = MTT assay, three independent experiments
[7] = WI-38 cells (normal cell line), normal cell line, MTT assay, 48 h, three independent experiments, read-out: Cytotoxicity (IC50, μM) WI-38
[8] = A549, MTT assay, 48 h, three independent experiments
[9] = HepG2, MTT assay, 48 h, three independent experiments

T1 sequence (P11802 whole entry): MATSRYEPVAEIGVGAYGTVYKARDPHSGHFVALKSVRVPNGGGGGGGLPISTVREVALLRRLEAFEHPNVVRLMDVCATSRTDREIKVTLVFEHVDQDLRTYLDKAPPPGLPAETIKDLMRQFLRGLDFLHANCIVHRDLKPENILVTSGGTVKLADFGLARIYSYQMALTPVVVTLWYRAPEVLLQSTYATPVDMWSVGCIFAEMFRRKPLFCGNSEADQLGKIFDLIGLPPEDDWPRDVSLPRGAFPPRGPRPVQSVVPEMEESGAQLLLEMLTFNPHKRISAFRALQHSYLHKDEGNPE
T1 sequence (P30281 whole entry partner): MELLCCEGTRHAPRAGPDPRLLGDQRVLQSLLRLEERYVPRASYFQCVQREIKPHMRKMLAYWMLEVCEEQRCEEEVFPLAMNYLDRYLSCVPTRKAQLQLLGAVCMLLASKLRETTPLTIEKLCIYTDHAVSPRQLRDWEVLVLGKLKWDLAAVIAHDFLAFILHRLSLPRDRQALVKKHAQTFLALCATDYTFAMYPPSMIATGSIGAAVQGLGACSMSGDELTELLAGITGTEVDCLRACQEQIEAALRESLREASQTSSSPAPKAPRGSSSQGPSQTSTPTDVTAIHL

Compound | IC50 [2] | melting point | IC50 [1, 6] | IC50 at 48 h [3, 7] | IC50 [4, 8] | IC50 [5, 9] | IC50 [1] | IC50 at 48 h [3] | IC50 ([4]; A549, 48 h) | IC50 ([5]; HepG2, 48 h)
CCOC(=O)C1c2[nH]c3ccccc3c2CCN1C(=O)c1ccc(I)cc1 (stereo not drawn) [Compound 7d, Ethyl-2-(4-iodobenzoyl)-2,3,4,9-tetrahydro-1H-pyrido[3,4-b] indole-1-carboxylate] | 35.3 µM | 175.6 to 176.3 °C | 27.6 ± 2.38 µM | 183 ± 17.9 µM | 20.4 ± 2.68 µM | 28.2 ± 0.95 µM |  |  |  | 
O=C1c2ccccc2-[n+]2ccc3c([nH]c4ccccc43)c21 [Fascaplysin] | 0.79 ± 0.72 µM |  |  |  |  |  | 0.56 ± 0.05 µM | 1.86 ± 0.17 µM | 1.05 ± 0.08 µM | 0.24 ± 0.04 µM
CCOC(=O)C1c2[nH]c3ccccc3c2CCN1C(=O)c1ccc(OC)cc1 (stereo not drawn) [Compound 7b, Ethyl-2-(4-methoxybenzoyl)-2,3,4,9-tetrahydro-1H-pyrido [3,4-b] indole-1-carboxylate] | 30.7 µM | 206.9 to 209.8 °C | 15.4 ± 3.1 µM | 429 ± 38.9 µM | 15.5 ± 13.4 µM | 41.5 ± 2.42 µM |  |  |  | 
CCOC(=O)C1c2[nH]c3ccccc3c2CCN1C(=O)c1ccccc1 (stereo not drawn) [Compound 7e, Ethyl-2-benzoyl-2,3,4,9-tetrahydro-1H-pyrido [3,4-b] indole-1-carboxylate] | 29.7 µM | 196.5 to 198.6 °C | 19.9 ± 2.45 µM | 99.8 ± 9.97 µM | 27.3 ± 6.5 µM | 21.4 ± 1.69 µM |  |  |  | 
CCOC(=O)C1c2[nH]c3ccccc3c2CCN1C(=O)c1ccc(C(F)(F)F)cc1 (stereo not drawn) [Compound 7f, Ethyl-2-(4-(trifluoromethyl)benzoyl)-2,3,4,9-tetrahydro-1H-pyrido [3,4-b] indole-1-carboxylate] | 43.9 µM |  | 47 ± 4.8 µM | 183 ± 17.9 µM | 42.1 ± 7.6 µM | 16.2 ± 3.72 µM |  |  |  | 
COC(=O)C1c2[nH]c3ccccc3c2CCN1C(=O)c1ccc(I)cc1 (stereo not drawn) [Compound 6d, Methyl-2-(4-iodobenzoyl)-2,3,4,9-tetrahydro-1H-pyrido [3,4-b] indole-1-carboxylate] | 30.3 µM | 195.6 to 196.5 °C | 19.4 ± 2.56 µM | 373 ± 62.8 µM | 10.8 ± 1.17 µM | 33.4 ± 5.18 µM |  |  |  | 
COC(=O)C1c2[nH]c3ccccc3c2CCN1C(=O)c1ccc(OC)cc1 (stereo not drawn) [Compound 6b, Methyl-2-(4-methoxybenzoyl)-2,3,4,9-tetrahydro-1H-pyrido [3,4-b] indole-1-carboxylate] | 25.7 µM | 200.8 to 201.6 °C | 14.1 ± 2.69 µM | 267 ± 28.9 µM | 13.2 ± 1.21 µM | 26.3 ± 1.88 µM |  |  |  | 
COC(=O)C1c2[nH]c3ccccc3c2CCN1C(=O)c1ccc(Cl)cc1 (stereo not drawn) [Compound 6g, Methyl 2-(4-chlorobenzoyl)-2,3,4,9-tetrahydro-1H-pyrido[3,4-b] indole-1-carboxylate] | 27.5 µM | 200.3 to 201.5 °C | 22.9 ± 2.31 µM | 375 ± 60 µM | 25.7 ± 8.78 µM | 13.7 ± 2.13 µM |  |  |  | 
CCOC(=O)C1c2[nH]c3ccccc3c2CCN1C(=O)c1ccc(F)cc1 (stereo not drawn) [Compound 7a, Ethyl-2-(4-fluorobenzoyl)-2,3,4,9-tetrahydro-1H-pyrido [3,4-b] indole-1-carboxylate] | 31.6 µM | 199.5 to 201.7 °C | 29.6 ± 7.07 µM | 255 ± 86.3 µM | 39.5 ± 4.98 µM | 47.5 ± 4.11 µM |  |  |  | 
COC(=O)C1c2[nH]c3ccccc3c2CCN1C(=O)c1ccc(C(F)(F)F)cc1 (stereo not drawn) [Compound 6f, Methyl-2-(4-(trifluoromethyl)benzoyl)-2,3,4,9-tetrahydro-1H-pyrido [3,4-b] indole-1-carboxylate] | 39.6 µM | 193.3 to 194.36 °C | 29.9 ± 4.73 µM | 125 ± 26.1 µM | 38.7 ± 7.25 µM | 35.8 ± 3.23 µM |  |  |  | 
COC(=O)C1c2[nH]c3ccccc3c2CCN1C(=O)c1ccc(F)cc1 (stereo not drawn) [Compound 6a, Methyl-2-(4-fluorobenzoyl)-2,3,4,9-tetrahydro-1H-pyrido [3,4-b] indole-1-carboxylate] | 29.6 µM | 182.8 to 183.7 °C | 28.4 ± 1.12 µM | 253 ± 33.2 µM | 38.3 ± 2.53 µM | 31.6 ± 2.53 µM |  |  |  | 
COC(=O)C1c2[nH]c3ccccc3c2CCN1C(=O)c1ccccc1 (stereo not drawn) [Compound 6e, Methyl-2-benzoyl-2,3,4,9-tetrahydro-1H-pyrido [3,4-b] indole-1-carboxylate] | 20.7 µM |  | 16.8 ± 4.12 µM | 118 ± 12.9 µM | 15.5 ± 1.26 µM | 31.8 ± 2.86 µM |  |  |  | 
CCOC(=O)C1c2[nH]c3ccccc3c2CCN1C(=O)c1ccc(Cl)cc1 (stereo not drawn) [Compound 7g, Ethyl-2-(4-chlorobenzoyl)-2,3,4,9-tetrahydro-1H-pyrido[3,4-b] indole-1-carboxylate] | 30.4 µM | 232.3 to 233.5 °C | 24.9 ± 3.44 µM | 200 ± 9.97 µM | 27.3 ± 2.4 µM | 41.4 ± 1.69 µM |  |  |  | 

More lines, in order of falling IC50 [2], values ahead:

IC50 [2] | melting point | Compound | IC50 [1, 6] | IC50 at 48 h [3, 7] | IC50 [4, 8] | IC50 [5, 9] | IC50 [1] | IC50 at 48 h [3] | IC50 ([4]; A549, 48 h) | IC50 ([5]; HepG2, 48 h)
16.4 µM | 209.6 to 211.5 °C | CCOC(=O)C1c2[nH]c3ccccc3c2CCN1C(=O)c1ccc2ccccc2c1 (stereo not drawn) [Compound 7h, Ethyl-2-(2-naphthoyl)-2,3,4,9-tetrahydro-1H-pyrido [3,4-b] indole-1-carboxylate] | 16.5 ± 6.64 µM | 183 ± 13.2 µM | 25.5 ± 3.92 µM | 17.5 ± 13.8 µM |  |  |  | 
12.4 µM | 183.6 to 184.5 °C | COC(=O)C1c2[nH]c3ccccc3c2CCN1C(=O)c1ccc2ccccc2c1 (stereo not drawn) [Compound 6h, Methyl-2-(2-naphthoyl)-2,3,4,9-tetrahydro-1H-pyrido [3,4-b] indole-1-carboxylate] | 10.8 ± 2.69 µM | 186 ± 12.4 µM | 12.7 ± 1.2 µM | 19.5 ± 0.43 µM |  |  |  | 
9.38 ± 1.79 µM | 202.5 to 204.6 °C | CCOC(=O)C1c2[nH]c3ccccc3c2CCN1C(=O)c1ccc2c(c1)OCO2 (stereo not drawn) [Compound 7i, Ethyl-2-(benzo [d] [1,3]dioxole-5-carbonyl)-2,3,4,9-tetrahydro-1H-pyrido [3,4-b] indole-1-carboxylate] | 6.18 ± 2.78 µM | 256 ± 56 µM | 20 ± 5.57 µM | 23.2 ± 9.17 µM |  |  |  | 
4.89 µM | 201.4 to 201.8 °C | CCOC(=O)C1c2[nH]c3ccccc3c2CCN1C(=O)c1ccc(-c2ccccc2)cc1 (stereo not drawn) [Compound 7c, Ethyl 2-([1, 1’-biphenyl]-4-carbonyl)-2,3,4,9-tetrahydro-1H-pyrido [3,4-b] indole-1 carboxylate] | 4.71 ± 0.7 µM | 281 ± 7.81 µM | 10.5 ± 1.5 µM | 10.8 ± 1.49 µM |  |  |  | 
3.38 µM | 165.3 to 166.7 °C | COC(=O)C1c2[nH]c3ccccc3c2CCN1C(=O)c1ccc2c(c1)OCO2 (stereo not drawn) [Compound 6i, Methyl-2-(benzo [d] [1,3]dioxole-5-carbonyl)-2,3,4,9-tetrahydro-1H-pyrido [3,4-b] indole-1-carboxylate] | 3.57 ± 0.93 µM | 247 ± 10.9 µM | 9.6 ± 3.22 µM | 12.2 ± 3.01 µM |  |  |  | 
1.89 µM | 177.8 to 179.6 °C | COC(=O)C1c2[nH]c3ccccc3c2CCN1C(=O)c1ccc(-c2ccccc2)cc1 (stereo not drawn) [Compound 6c, Methyl-2-([1, 1’-biphenyl]-4-carbonyl)-2,3,4,9-tetrahydro-1H-pyrido [3,4-b] indole-1 carboxylate] | 1.03 ± 0.19 µM | 312 ± 56.1 µM | 6.53 ± 1.65 µM | 5.21 ± 0.58 µM |  |  |  | 
